Data published in US9688684B2, “Substituted tetrazolo[1,5-a]pyrazines as ROR-gamma inhibitors” (Merck Patent GmbH, priority 2013, dated 2017).

Tests used:
[1] = biological target: human RORγ ligand binding domain (GST-hRORγ-LBD) (Homo sapiens (Human), UniProt P51449); test: TR-FRET assay (biochemical cofactor interaction assay, GST-hRORγ-LBD / TRAP220 peptide)
Description: RORγ is an orphan member of the nuclear receptor (NR) family displaying constitutive activity. The activity of nuclear receptors can be modulated by ligand-induced cofactor protein interactions. For example, agonist binding leads to recruitment of coactivator protein, and antagonist binding either blocks coactivator interaction or facilitates the recruitment of corepressors. […] The conformational change induced by ligand binding influences interactions with LXXLL motif peptides.
RORγ (t) is a thymus-specific isoform of RORγ which is widely expressed. It shares the same ligand binding domain (LBD) sequence with RORγ. Thus, a screen using the LBD will yield antagonists targeting both RORγ and RORγt.
In order to identify compounds which block activity of the human nuclear receptor Retinoid-related Orphan Receptor gamma (RORγ) a biochemical cofactor interaction assay based on the TR-FRET principle is performed. […] The ligand-binding domain (LBD) of RORγ is expressed as fusion protein with GST in […] cells using the vector pDEST15. Cells are lysed by lysozyme-treatment and sonication, and the fusion proteins purified over glutathione sepharose (Pharmacia) according to the manufacturers instructions. The strong constitutive interaction is disrupted upon binding of functional antagonists. The strength of the interaction is monitored by TR-FRET between streptavidine APC interacting with the biotinylated peptide and Europium-labelled Anti-GST.

[2] = biological target: RORγ Ligand binding domain (RORγ-LBD, aa 238-497, NP_001001523) (Homo sapiens (Human), UniProt P51449); test: ROR γ GAI4 Reporter Gene Assay (Mammalian one-hybrid, M1H) in 293T cells; assay type: cell-based
Description: ROR γ GAI4 Reporter Gene Assay
A Mammalian one-hybrid system is used to perform a cell-based functional transactivation assay for detecting RORγ activity modulators.
The Mammalian-1-Hybrid is derived from the Mammalian-2-Hybrid setup. Whereas in the latter, the binding partners are defined in their role as interaction, transactivation and DNA-binding components, the Mammalian-1-Hybrid makes use of the fact that all mammalian cell types express a set of Nuclear Receptors and their associated cofactors. […] A Gal4 minimal promoter driven luciferase construct (pFR-Luc from Stratagene, containing a synthetic promoter with five tandem repeats of the yeast GAL4 binding sites controlling expression of the Photinus pyralis luciferase gene) is used as reporter. The Gal4-DBD-NR-LBD fusion protein by itself cannot initiate transcription and is dependent on the presence of cofactors present in the cellular system used.
In order to rule out cytotoxic and unspecific transcriptional compound effects a transfection with a firefly luciferase driven by the constitutive CMV promoter is performed in parallel.
After transfection 18 μl complete MEM medium containing 3% charcoal-dextran treated FBS is added as well as 4 μl test compounds (DMSO stocks prediluted in OptiMem (Invitrogen)) followed by incubation for 16-24 h at 37° C., 5% CO2 and 90% rH.
Firefly luciferase activity is measured using the Promega ONE-Glo™ Luciferase Assay System.

human RORγ ligand binding domain (GST-hRORγ-LBD), sequence (P51449 269-508): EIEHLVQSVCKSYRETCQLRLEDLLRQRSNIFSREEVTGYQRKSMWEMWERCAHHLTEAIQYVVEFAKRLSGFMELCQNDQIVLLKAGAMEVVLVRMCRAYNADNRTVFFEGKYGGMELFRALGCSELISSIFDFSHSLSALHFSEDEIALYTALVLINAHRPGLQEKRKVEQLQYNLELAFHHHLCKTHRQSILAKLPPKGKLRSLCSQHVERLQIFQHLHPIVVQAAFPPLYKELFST
RORγ Ligand binding domain (RORγ-LBD, aa 238-497, NP_001001523), sequence (P51449 259-518): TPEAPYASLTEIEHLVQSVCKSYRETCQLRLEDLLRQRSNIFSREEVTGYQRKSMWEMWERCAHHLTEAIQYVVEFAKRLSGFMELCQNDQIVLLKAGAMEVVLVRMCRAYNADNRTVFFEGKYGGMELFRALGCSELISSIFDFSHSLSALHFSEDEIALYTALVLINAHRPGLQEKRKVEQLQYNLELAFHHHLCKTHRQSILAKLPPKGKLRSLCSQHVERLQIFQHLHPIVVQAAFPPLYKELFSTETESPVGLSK

Row | Structure (SMILES) | IC50 [1] [µM] | IC50 [2] [µM]
1 | COc1ccc(OC)c(C2c3nnnn3CCN2Cc2ccc(F)cc2)c1 (centres unmarked) [Compound 128, 8-(2,5-Dimethoxy-phenyl)-7-(4-fluoro-benzyl)-5,6,7,8-tetrahydro-tetrazolo[1,5-a]pyrazine] | 0.99 to 9.9 | 9.9 to 40
2 | Fc1ccc(CN2CCn3nnnc3C2c2cccc(F)c2)cc1 (single isomer, unassigned) [Compound 91-b, 7-(4-Fluoro-benzyl)-8-(3-fluoro-phenyl)-5,6,7,8-tetrahydro-tetrazolo[1,5-a]pyrazine] | 0.99 to 9.9 | 0.99 to 9.9
3 | Cc1cccc(CN2CCn3nnnc3C2c2ccc(OC(C)C)cc2)c1 (centres unmarked) [Compound 99, 8-(4-Isopropoxy-phenyl)-7-(3-methyl-benzyl)-5,6,7,8-tetrahydro-tetrazolo[1,5-a]pyrazine] | 0.01 to 0.99 | 0.99 to 9.9
4 | Cc1ccc(CN2CCn3nnnc3C2c2ccc(OC(C)C)cc2)o1 (centres unmarked) [Compound 142, 8-(4-Isopropoxy-phenyl)-7-(5-methyl-furan-2-ylmethyl)-5,6,7,8-tetrahydro-tetrazolo[1,5-a]pyrazine] | 9.9 to 40 | 9.9 to 40
5 | Fc1ccc(C2c3nnnn3CCN2Cc2cccs2)cc1 (centres unmarked) [Compound 125, 8-(4-Fluoro-phenyl)-7-thiophen-2-ylmethyl-5,6,7,8-tetrahydro-tetrazolo[1,5-a]pyrazine] | 0.99 to 9.9 | 9.9 to 40
6 | Cc1cccc(CN2CCn3nnnc3C2c2ccc3c(c2)OCCO3)c1 (centres unmarked) [Compound 95, 8-(2,3-Dihydro-benzo[1,4]dioxin-6-yl)-7-(3-methyl-benzyl)-5,6,7,8-tetrahydro-tetrazolo[1,5-a]pyrazine] | 0.01 to 0.99 | 0.99 to 9.9
7 | CC(C)c1nn(-c2ccccc2)cc1C1c2nnnn2CCN1Cc1cnn(Cc2ccccc2)c1 (centres unmarked) [Compound 161, 7-(1-Benzyl-1H-pyrazol-4-ylmethyl)-8-(3-isopropyl-1-phenyl-1H-pyrazol-4-yl)-5,6,7,8-tetrahydro-tetrazolo[1,5-a]pyrazine] | 0.99 to 9.9 | 0.99 to 9.9
8 | Brc1cccc(CN2CCn3nnnc3C2C2CCCCC2)c1 (centres unmarked) [Compound 65, 7-(3-Bromo-benzyl)-8-cyclohexyl-5,6,7,8-tetrahydro-tetrazolo[1,5-a]pyrazine] | 9.9 to 40 | 9.9 to 40
9 | Cc1cccc(CN2CCn3nnnc3C2c2ccc(F)cc2)c1 (racemic) [Compound 93, 8-(4-Fluoro-phenyl)-7-(3-methyl-benzyl)-5,6,7,8-tetrahydro-tetrazolo[1,5-a]pyrazine] | 0.01 to 0.99 | 9.9 to 40
10 | CC(C)c1nn(-c2ccccc2)cc1C1c2nnnn2CCN1Cc1cccs1 (single isomer, unassigned) [Compound 61-a, 8-(3-Isopropyl-1-phenyl-1H-pyrazol-4-yl)-7-thiophen-2-ylmethyl-5,6,7,8-tetrahydro-tetrazolo[1,5-a]pyrazine] | 0.01 to 0.99 | 0.01 to 0.99
11 | Fc1cccc(C2c3nnnn3CCN2Cc2cccc(Br)c2)c1 (centres unmarked) [Compound 163, 7-(3-Bromo-benzyl)-8-(3-fluoro-phenyl)-5,6,7,8-tetrahydro-tetrazolo[1,5-a]pyrazine] | 0.01 to 0.99 | 9.9 to 40
12 | Fc1ccccc1C1c2nnnn2CCN1Cc1cccc(Br)c1 (centres unmarked) [Compound 119, 7-(3-Bromo-benzyl)-8-(2-fluoro-phenyl)-5,6,7,8-tetrahydro-tetrazolo[1,5-a]pyrazine] | 0.99 to 9.9 | 0.99 to 9.9
13 | Clc1ccc(C2c3nnnn3CCN2Cc2cccs2)cc1 (centres unmarked) [Compound 106, 8-(4-Chloro-phenyl)-7-thiophen-2-ylmethyl-5,6,7,8-tetrahydro-tetrazolo[1,5-a]pyrazine] | 0.01 to 0.99 | 9.9 to 40
14 | CC(C)c1nn(-c2ccccc2)cc1C1c2nnnn2CCN1C1CCCCC1 (centres unmarked) [Compound 114, 7-Cyclohexyl-8-(3-isopropyl-1-phenyl-1H-pyrazol-4-yl)-5,6,7,8-tetrahydro-tetrazolo[1,5-a]pyrazine] | 0.99 to 9.9 | 9.9 to 40
15 | Fc1ccc(C2c3nnnn3CCN2Cc2cccc(Br)c2)cc1 (single isomer, unassigned) [Compound 96-a, 7-(3-Bromo-benzyl)-8-(4-fluoro-phenyl)-5,6,7,8-tetrahydro-tetrazolo[1,5-a]pyrazine] | 0.01 to 0.99 | 0.99 to 9.9
16 | Cc1c(CN2CCn3nnnc3C2c2cn(-c3ccccc3)nc2C(C)C)cnn1C (centres unmarked) [Compound 156, 7-(1,5-Dimethyl-1H-pyrazol-4-ylmethyl)-8-(3-isopropyl-1-phenyl-1H-pyrazol-4-yl)-5,6,7,8-tetrahydro-tetrazolo[1,5-a]pyrazine] | 9.9 to 40 | 9.9 to 40
17 | Cc1cccc(CN2CCn3nnnc3C2c2ccc(F)cc2F)c1 (centres unmarked) [Compound 136, 8-(2,4-Difluoro-phenyl)-7-(3-methyl-benzyl)-5,6,7,8-tetrahydro-tetrazolo[1,5-a]pyrazine] | 0.99 to 9.9 | 9.9 to 40
18 | CC(C)c1nn(-c2ccccc2)cc1C1c2nnnn2CCN1Cc1cccc(F)c1F (centres unmarked) [Compound 63, 7-(2,3-Difluoro-benzyl)-8-(3-isopropyl-1-phenyl-1H-pyrazol-4-yl)-5,6,7,8-tetrahydro-tetrazolo[1,5-a]pyrazine] | 9.9 to 40 | 0.01 to 0.99
19 | COc1ccc(OC)c(CN2CCn3nnnc3C2c2cccc(F)c2F)c1 (centres unmarked) [Compound 71, 8-(2,3-Difluoro-phenyl)-7-(2,5-dimethoxy-benzyl)-5,6,7,8-tetrahydro-tetrazolo[1,5-a]pyrazine] | 9.9 to 40 | 9.9 to 40
20 | Fc1cccc(CN2CCn3nnnc3C2c2cccc(F)c2)c1 (centres unmarked) [Compound 38, 7-(3-Fluoro-benzyl)-8-(3-fluoro-phenyl)-5,6,7,8-tetrahydro-tetrazolo[1,5-a]pyrazine] | 0.99 to 9.9 | 0.99 to 9.9
21 | COc1ccc(OC)c(CN2CCn3nnnc3C2c2cn(-c3ccccc3)nc2C(C)C)c1 (centres unmarked) [Compound 54, 7-(2,5-Dimethoxy-benzyl)-8-(3-isopropyl-1-phenyl-1H-pyrazol-4-yl)-5,6,7,8-tetrahydro-tetrazolo[1,5-a]pyrazine] | 9.9 to 40 | 9.9 to 40
22 | CC(C)c1nn(-c2ccccc2)cc1C1c2nnnn2CCN1Cc1ccc2c(c1)OCO2 (centres unmarked) [Compound 58, 7-Benzo[1,3]dioxol-5-ylmethyl-8-(3-isopropyl-1-phenyl-1H-pyrazol-4-yl)-5,6,7,8-tetrahydro-tetrazolo[1,5-a]pyrazine] | 9.9 to 40 | 0.99 to 9.9
23 | CC(C)Oc1ccc(C2c3nnnn3CCN2Cc2ccc3c(c2)OCO3)cc1 (centres unmarked) [Compound 131, 7-Benzo[1,3]dioxol-5-ylmethyl-8-(4-isopropoxy-phenyl)-5,6,7,8-tetrahydro-tetrazolo[1,5-a]pyrazine] | 0.99 to 9.9 | 9.9 to 40
24 | Fc1cc(F)cc(C2c3nnnn3CCN2Cc2cccc(Br)c2)c1 (centres unmarked) [Compound 107, 7-(3-Bromo-benzyl)-8-(3,5-difluoro-phenyl)-5,6,7,8-tetrahydro-tetrazolo[1,5-a]pyrazine] | 0.01 to 0.99 | 9.9 to 40
25 | CC(C)c1nn(-c2ccccc2)cc1C1c2nnnn2CCN1Cc1cccs1 (racemic) [Compound 61, 8-(3-Isopropyl-1-phenyl-1H-pyrazol-4-yl)-7-thiophen-2-ylmethyl-5,6,7,8-tetrahydro-tetrazolo[1,5-a]pyrazine] | 0.01 to 0.99 | 0.01 to 0.99
26 | CC(C)c1nn(-c2ccccc2)cc1C1c2nnnn2CCN1Cc1cnn2ccccc12 (centres unmarked) [Compound 154, 8-(3-Isopropyl-1-phenyl-1H-pyrazol-4-yl)-7-pyrazolo[1,5-a]pyridin-3-ylmethyl-5,6,7,8-tetrahydro-tetrazolo[1,5-a]pyrazine] | 9.9 to 40 | 0.99 to 9.9
27 | Cc1cccc(C2c3nnnn3CCN2Cc2ccccc2)c1 (centres unmarked) [Compound 100, 7-Benzyl-8-m-tolyl-5,6,7,8-tetrahydro-tetrazolo[1,5-a]pyrazine] | 0.01 to 0.99 | 9.9 to 40
28 | Cn1ccc(CN2CCn3nnnc3C2c2ccc(F)cc2)n1 (centres unmarked) [Compound 85, 8-(4-Fluoro-phenyl)-7-(1-methyl-1H-pyrazol-3-ylmethyl)-5,6,7,8-tetrahydro-tetrazolo[1,5-a]pyrazine] | 9.9 to 40 | 
29 | COc1ccc(C2c3nnnn3CCN2Cc2cn(-c3ccccc3)nc2C(C)C)cc1 (centres unmarked) [Compound 5, 7-(3-Isopropyl-1-phenyl-1H-pyrazol-4-ylmethyl)-8-(4-methoxy-phenyl)-5,6,7,8-tetrahydro-tetrazolo[1,5-a]pyrazine] | 9.9 to 40 | 
